pIC50: −log10 of the molar value.
Legend:
[1] = Antioxidant activity assessed as superoxide dismutase-like activity by measuring inhibition of superoxide radical anion production at 2 uM by NBT reduction assay relative to control; type: functional
Escherichia coli = test: Induction of Escherichia coli genomic DNA cleavage after 1 hr by agarose gel electrophoresis method
[2] = Growth inhibition of human NCI60 cells at 10 uM after 48 hrs by SRB assay relative to control; values are per cent of control; conditions: NCI60, 48 h
CCRF-CEM = test: Growth inhibition of human CCRF-CEM cells incubated for 48 hrs by sulforhodamine B assay; type: functional
HL-60(TB) = test: Growth inhibition of human HL-60(TB) cells incubated for 48 hrs by sulforhodamine B assay; type: functional; conditions: HL-60, 48 h
K562 = test: Growth inhibition of human K562 cells incubated for 48 hrs by sulforhodamine B assay; type: functional; conditions: K562, 48 h
MOLT-4 = test: Growth inhibition of human MOLT4 cells incubated for 48 hrs by sulforhodamine B assay; type: functional; conditions: MOLT-4, 48 h
RPMI-8226 = test: Growth inhibition of human RPMI8226 cells incubated for 48 hrs by sulforhodamine B assay; type: functional; conditions: RPMI-8226, 48 h
SR = test: Growth inhibition of human SR cells incubated for 48 hrs by sulforhodamine B assay; type: functional
A549 = test: Growth inhibition of human A549/ATCC cells incubated for 48 hrs by sulforhodamine B assay; type: functional; conditions: A549, 48 h
HOP-62 = test: Growth inhibition of human HOP62 cells incubated for 48 hrs by sulforhodamine B assay; type: functional; conditions: HOP-62, 48 h
HOP-92 = test: Growth inhibition of human HOP92 cells incubated for 48 hrs by sulforhodamine B assay; type: functional; conditions: HOP-92, 48 h
NCI-H226 = test: Growth inhibition of human NCI-H226 cells incubated for 48 hrs by sulforhodamine B assay; type: functional; conditions: NCI-H226, 48 h
NCI-H23 = test: Growth inhibition of human NCI-H23 cells incubated for 48 hrs by sulforhodamine B assay; type: functional; conditions: NCI-H23, 48 h
NCI-H460 = test: Growth inhibition of human NCI-H460 cells incubated for 48 hrs by sulforhodamine B assay; type: functional; conditions: NCI-H460, 48 h
NCI-H522 = test: Growth inhibition of human NCI-H522 cells incubated for 48 hrs by sulforhodamine B assay; type: functional; conditions: NCI-H522, 48 h
COLO 205 = test: Growth inhibition of human COLO205 cells incubated for 48 hrs by sulforhodamine B assay; type: functional; conditions: COLO 205, 48 h
HCC 2998 = test: Growth inhibition of human HCC2998 cells incubated for 48 hrs by sulforhodamine B assay; type: functional; conditions: HCC 2998, 48 h
HCT-116 = test: Growth inhibition of human HCT116 cells incubated for 48 hrs by sulforhodamine B assay; type: functional; conditions: HCT-116, 48 h
HCT-15 = test: Growth inhibition of human HCT15 cells incubated for 48 hrs by sulforhodamine B assay; type: functional; conditions: HCT-15, 48 h
HT-29 = test: Growth inhibition of human HT-29 cells incubated for 48 hrs by sulforhodamine B assay; type: functional; conditions: HT-29, 48 h
KM12 = test: Growth inhibition of human KM12 cells incubated for 48 hrs by sulforhodamine B assay; type: functional; conditions: KM12, 48 h
SW-620 = test: Growth inhibition of human SW620 cells incubated for 48 hrs by sulforhodamine B assay; type: functional; conditions: SW-620, 48 h
SF-268 = test: Growth inhibition of human SF268 cells incubated for 48 hrs by sulforhodamine B assay; type: functional; conditions: SF-268, 48 h
SF-295 = test: Growth inhibition of human SF295 cells incubated for 48 hrs by sulforhodamine B assay; type: functional; conditions: SF-295, 48 h
SF-539 = test: Growth inhibition of human SF539 cells incubated for 48 hrs by sulforhodamine B assay; type: functional; conditions: SF-539, 48 h
SNB-19 = test: Growth inhibition of human SNB19 cells incubated for 48 hrs by sulforhodamine B assay; type: functional; conditions: SNB-19, 48 h
U-251 = test: Growth inhibition of human U251 cells incubated for 48 hrs by sulforhodamine B assay; type: functional; conditions: U-251, 48 h
LOX IMVI = test: Growth inhibition of human LOXIMVI cells incubated for 48 hrs by sulforhodamine B assay; type: functional
M14 = test: Growth inhibition of human M14 cells incubated for 48 hrs by sulforhodamine B assay; type: functional; conditions: M14, 48 h
MDA-MB-435 = test: Growth inhibition of human MDA-MB-435 cells incubated for 48 hrs by sulforhodamine B assay; type: functional; conditions: MDA-MB-435, 48 h
SK-MEL-2 = test: Growth inhibition of human SK-MEL-2 cells incubated for 48 hrs by sulforhodamine B assay; type: functional; conditions: SK-MEL-2, 48 h
SK-MEL-28 = test: Growth inhibition of human SK-MEL-28 cells incubated for 48 hrs by sulforhodamine B assay; type: functional; conditions: SK-MEL-28, 48 h
SK-MEL-5 = test: Growth inhibition of human SK-MEL-5 cells incubated for 48 hrs by sulforhodamine B assay; type: functional; conditions: SK-MEL-5, 48 h
UACC-257 = test: Growth inhibition of human UACC257 cells incubated for 48 hrs by sulforhodamine B assay; type: functional; conditions: UACC-257, 48 h
UACC-62 = test: Growth inhibition of human UACC62 cells incubated for 48 hrs by sulforhodamine B assay; type: functional; conditions: UACC-62, 48 h
OVCAR-3 = test: Growth inhibition of human OVCAR3 cells incubated for 48 hrs by sulforhodamine B assay; type: functional; conditions: OVCAR-3, 48 h
OVCAR-8 = test: Growth inhibition of human OVCAR8 cells incubated for 48 hrs by sulforhodamine B assay; type: functional; conditions: OVCAR-8, 48 h
NCI/ADR-RES = test: Growth inhibition of human NCI/ADR-RES cells incubated for 48 hrs by sulforhodamine B assay; type: functional
SK-OV-3 = test: Growth inhibition of human SKOV3 cells incubated for 48 hrs by sulforhodamine B assay; type: functional; conditions: SK-OV-3, 48 h
786-0 = test: Growth inhibition of human 786-O cells incubated for 48 hrs by sulforhodamine B assay; type: functional; conditions: 786-0, 48 h
ACHN = test: Growth inhibition of human ACHN cells incubated for 48 hrs by sulforhodamine B assay; type: functional
CAKI-1 = test: Growth inhibition of human Caki1 cells incubated for 48 hrs by sulforhodamine B assay; type: functional; conditions: CAKI-1, 48 h
SN12C = test: Growth inhibition of human SN12C cells incubated for 48 hrs by sulforhodamine B assay; type: functional
TK-10 = test: Growth inhibition of human TK10 cells incubated for 48 hrs by sulforhodamine B assay; type: functional; conditions: TK-10, 48 h
PC-3 = test: Growth inhibition of human PC3 cells incubated for 48 hrs by sulforhodamine B assay; type: functional; conditions: PC-3, 48 h
DU-145 = test: Growth inhibition of human DU145 cells incubated for 48 hrs by sulforhodamine B assay; type: functional; conditions: DU-145, 48 h
MCF7 = test: Growth inhibition of human MCF7 cells incubated for 48 hrs by sulforhodamine B assay; type: functional; conditions: MCF7, 48 h
Hs-578T = test: Growth inhibition of human Hs 578T cells incubated for 48 hrs by sulforhodamine B assay; type: functional
BT-549 = test: Growth inhibition of human BT549 cells incubated for 48 hrs by sulforhodamine B assay; type: functional; conditions: BT-549, 48 h
T47D = test: Growth inhibition of human T47D cells incubated for 48 hrs by sulforhodamine B assay; type: functional
MDA-MB-468 = test: Growth inhibition of human MDA-MB-468 cells incubated for 48 hrs by sulforhodamine B assay; type: functional; conditions: MDA-MB-468, 48 h
WI-38 = test: Cytotoxicity against human WI38 cells assessed as reduction in cell viability after 24 hrs by MTT assay; type: cell-based; conditions: WI-38, 24 h
WISH = test: Cytotoxicity against human WISH cells assessed as reduction in cell viability after 24 hrs by MTT assay; type: cell-based
Homo sapiens = organism: Homo sapiens; test: Inhibition of PTK in human MCF7 cells at 1 uM preincubated for 2 hrs followed by poly-Glu-Tyr substrate addition by ELISA relative to control; type: cell-based

For `CN(C)c1ccc(-c2ccc(-c3ccc(C(=N)N)c(F)c3)s2)cc1`, the inhibition [1] was 56.7% and the Activity (Escherichia coli) was “Dose-dependent effect”.
With `N=C(N)c1ccc(-c2ccc(-c3cccs3)s2)cc1` [4-(2,2'-BITHIOPHENE-5-YL)BENZAMIDINE] the growth percent at 10 µM [2] was 83.9%.
For `N=C(N)c1ccc(-c2ccc(-c3cc(Cl)cc(Cl)c3)s2)cc1`, the GI50 (CCRF-CEM) was 1540 nM, the GI50 (HL-60(TB)) was 1070 nM and the GI50 (K562) was 225 nM. It also gave a GI50 (MOLT-4) of 1180 nM, a GI50 (RPMI-8226) of 639 nM and a GI50 (SR) of 284 nM. The GI50 (A549) was 1520 nM, the GI50 (HOP-62) was 1690 nM and the GI50 (HOP-92) was 1710 nM. For the same molecule, the GI50 (NCI-H226) was 2090 nM, the GI50 (NCI-H23) was 1750 nM and the GI50 (NCI-H460) was 375 nM. For the same molecule, the GI50 (NCI-H522) was 2350 nM, the GI50 (COLO 205) was 304 nM and the GI50 (HCC 2998) was 634 nM. It also gave a GI50 (HCT-116) of 468 nM, a GI50 (HCT-15) of 255 nM and a GI50 (HT-29) of 379 nM. For the same molecule, the GI50 (KM12) was 698 nM, the GI50 (SW-620) was 318 nM and the GI50 (SF-268) was 1630 nM. For the same molecule, the GI50 (SF-295) was 1380 nM, the GI50 (SF-539) was 1970 nM and the GI50 (SNB-19) was 1200 nM. The GI50 (U-251) was 254 nM, the GI50 (LOX IMVI) was 155 nM and the GI50 (M14) was 1540 nM. For the same molecule, the GI50 (MDA-MB-435) was 1520 nM, the GI50 (SK-MEL-2) was 1990 nM and the GI50 (SK-MEL-28) was 1710 nM. For the same molecule, the GI50 (SK-MEL-5) was 1600 nM, the GI50 (UACC-257) was 2480 nM and the GI50 (UACC-62) was 1550 nM. For the same molecule, the GI50 (OVCAR-3) was 1700 nM, the GI50 (OVCAR-8) was 2420 nM and the GI50 (NCI/ADR-RES) was 1930 nM. The GI50 (SK-OV-3) was 454 nM, the GI50 (786-0) was 1310 nM and the GI50 (ACHN) was 1890 nM. The GI50 (CAKI-1) was 1510 nM, the GI50 (SN12C) was 1570 nM and the GI50 (TK-10) was 1870 nM. For the same molecule, the GI50 (PC-3) was 1750 nM, the GI50 (DU-145) was 970 nM and the GI50 (MCF7) was 193 nM. For the same molecule, the GI50 (Hs-578T) was 2050 nM, the GI50 (BT-549) was 2050 nM and the GI50 (T47D) was 1480 nM. For the same molecule, the GI50 (MDA-MB-468) was 1030 nM, the pIC50 (WI-38) was 3.86 and the pIC50 (WISH) was 3.81. For the same molecule, the inhibition [1] was 62.3%, the Activity (Escherichia coli) was “Dose-dependent effect” and the inhibition (Homo sapiens) was 19 to 36%. For the same molecule, the growth percent at 10 µM [2] was -70.3%.

— ChEMBL document CHEMBL4007388, “Synthesis and antiproliferative activity of monocationic arylthiophene derivatives” (Eur J Med Chem, 2017)
